What was measured:
[1] = target: Glutamate receptor 1 (Rattus norvegicus) (UniProt P19490); test: (§1) Compound was evaluated to potentiate response of AMPA-activated current in Xenopus oocytes expressing Ionotropic glutamate receptor AMPA; assay type: functional, cell-based; details: Oocyte
[2] = target: Glutamate receptor ionotropic AMPA (Homo sapiens) (UniProt P48058+P42263+P42262+P42261); test: as §1; assay type: functional, cell-based; details: Oocyte
[3] = target: Glutamate receptor ionotropic kainate (Homo sapiens) (UniProt P39086+Q16478+Q16099+Q13002+Q13003); test: Compound was evaluated to potentiate response to Ionotropic glutamate receptor kainate; assay type: protein-complex assay
[4] = target: Glutamate [NMDA] receptor (Homo sapiens) (UniProt Q05586+Q12879+Q13224+O15399+O60391+Q14957+Q8TCU5); test: Compound was evaluated to potentiate response to NMDA receptor; assay type: protein-complex assay

Sequence of Glutamate receptor 1 (Rattus norvegicus) (P19490 whole entry): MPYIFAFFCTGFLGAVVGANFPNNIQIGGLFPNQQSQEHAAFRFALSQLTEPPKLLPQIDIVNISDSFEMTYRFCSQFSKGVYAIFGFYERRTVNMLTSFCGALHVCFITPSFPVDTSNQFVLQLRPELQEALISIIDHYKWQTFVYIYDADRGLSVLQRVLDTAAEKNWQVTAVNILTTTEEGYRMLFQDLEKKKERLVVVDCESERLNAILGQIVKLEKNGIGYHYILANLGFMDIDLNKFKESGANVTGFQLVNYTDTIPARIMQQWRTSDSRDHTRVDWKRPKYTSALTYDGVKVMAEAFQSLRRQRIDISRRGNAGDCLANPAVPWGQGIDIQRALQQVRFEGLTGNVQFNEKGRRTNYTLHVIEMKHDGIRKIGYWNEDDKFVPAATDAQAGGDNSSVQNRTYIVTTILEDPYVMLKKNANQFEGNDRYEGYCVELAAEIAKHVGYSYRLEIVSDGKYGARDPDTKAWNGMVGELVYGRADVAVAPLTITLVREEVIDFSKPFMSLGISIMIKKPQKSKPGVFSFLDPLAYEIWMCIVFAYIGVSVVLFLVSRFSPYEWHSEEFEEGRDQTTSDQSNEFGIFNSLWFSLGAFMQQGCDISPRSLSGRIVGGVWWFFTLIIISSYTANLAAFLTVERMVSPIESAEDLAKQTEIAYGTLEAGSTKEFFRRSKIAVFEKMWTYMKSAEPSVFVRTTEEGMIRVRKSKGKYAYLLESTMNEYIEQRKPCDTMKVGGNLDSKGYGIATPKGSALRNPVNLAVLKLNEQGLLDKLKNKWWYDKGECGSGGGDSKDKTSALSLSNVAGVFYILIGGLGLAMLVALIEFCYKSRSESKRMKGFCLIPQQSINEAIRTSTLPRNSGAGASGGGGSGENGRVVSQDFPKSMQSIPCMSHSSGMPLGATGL

O=C(c1ccc2c(c1)OCCO2)N1CC=CCC1
EC2x [1]: 45 µM | EC5x [1]: 110 µM

NS(=O)(=O)c1cc2c(cc1Cl)NC(C1CC3C=CC1C3)NS2(=O)=O (configuration not stated)
EC2x [1]: 2 µM | EC5x [1]: 10 µM

O=C(c1ccc2c(c1)OCO2)N1CCCCC1
EC2x [1]: 300 µM

O=S1(=O)N[C@@H]2CCCN2c2ccccc21
EC2x [1]: 300 µM

O=S1(=O)NC2CCCN2c2ccccc21 (racemic)
EC2x [1]: 60 µM | EC5x [1]: 160 µM

O=S1(=O)N[C@H]2CCCN2c2ccccc21
EC2x [2]: 35 µM | EC5x [2]: 70 µM | EC2x [3]: > 300 µM | EC2x [4]: > 300 µM
